Assay [1] addresses T1, angiotensin-converting enzyme 2 (ACE2) (Homo sapiens, UniProt Q9BYF1). Kind of assay: SPR. Format: binding.
For assay [2], the target named is T1, angiotensin-converting enzyme 2 (ACE2). Kind of assay: SPR. The format is binding. This is another data set of the same source.

Consider two compounds from publication PMC7853165 (Infectious Diseases and Therapy, 2021).

SMILES strings stand for the structures. Read-outs that look alike come from different tables or passages of the source.

By Kd is commonly meant the concentration at which binding is half-saturated.

T1 sequence (Q9BYF1 18-805): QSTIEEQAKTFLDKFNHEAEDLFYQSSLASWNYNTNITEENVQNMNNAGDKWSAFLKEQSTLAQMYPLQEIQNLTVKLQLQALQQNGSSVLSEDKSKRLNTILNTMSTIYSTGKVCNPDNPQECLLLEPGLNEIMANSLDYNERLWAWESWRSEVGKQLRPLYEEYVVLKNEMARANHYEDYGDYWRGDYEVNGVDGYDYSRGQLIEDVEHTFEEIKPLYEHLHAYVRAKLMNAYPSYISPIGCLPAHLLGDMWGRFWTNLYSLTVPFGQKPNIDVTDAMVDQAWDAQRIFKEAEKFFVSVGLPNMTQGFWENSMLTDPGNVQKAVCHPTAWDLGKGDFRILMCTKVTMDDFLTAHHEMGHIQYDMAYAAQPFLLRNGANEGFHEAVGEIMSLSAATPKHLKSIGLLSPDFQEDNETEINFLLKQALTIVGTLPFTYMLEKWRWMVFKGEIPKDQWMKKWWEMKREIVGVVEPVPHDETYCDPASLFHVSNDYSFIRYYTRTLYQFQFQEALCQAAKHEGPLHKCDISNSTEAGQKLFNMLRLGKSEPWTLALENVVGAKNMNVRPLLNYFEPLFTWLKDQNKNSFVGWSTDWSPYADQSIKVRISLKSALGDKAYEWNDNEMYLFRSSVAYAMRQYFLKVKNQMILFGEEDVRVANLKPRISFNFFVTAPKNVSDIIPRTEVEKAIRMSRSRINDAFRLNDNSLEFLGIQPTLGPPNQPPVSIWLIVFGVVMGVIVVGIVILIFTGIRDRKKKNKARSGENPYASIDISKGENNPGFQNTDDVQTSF

As for `CC1=CC(=O)C(C(C)C)=CC1=O` [thymoquinone], binding in assay [1] was characterised by a dissociation constant (Kd) of 32.1 µM.

`CC(C)C[C@H](N[C@@H](Cc1cncn1Cc1cc(Cl)cc(Cl)c1)C(=O)O)C(=O)O` [MLN-4760] gave an equilibrium dissociation constant (Kd) in assay [2] of 66 µM.
